Reference: patent US10899631B2, “Ferrous modified selenium sol for inhibiting accumulation of cadmium and arsenic in rice and preparation method and application thereof” (priority 2018, dated 2021)
Where two headings read alike, the source gives them in different places.

How the values were obtained:
[1] = test system: OsHMA3; experiment: Expression level of OsHMA3 in rice suspension cells, real-time fluorescence quantitative PCR; assay type: cell-based, Oryza sativa L. Japonica; conditions: 24 h with treatment, then 10 μM cadmium and 5 μM arsenic for 24 h, CK 1.47 ± 0.07
Experimental: (§1) Method of culturing rice suspension cells (Oryza sativa L. Japonica): Selecting mature and plump seeds of Japanese rice Nipponbare, and disinfecting them with 70% alcohol by volume or 30% sodium hypochlorite by mass; evenly sowing the seeds with tweezers onto a plate containing a solid medium, and then placing the plate into an incubator to culture in the dark at a culture temperature of 25° C.; after a period of time, removing hypocotyls from the seeds with tweezers, and culturing the hypocotyls in another solid medium to obtain callus; crushing 10 g of the callus, adding it to a triangular flask containing a liquid medium (50 mL), and culturing in a shaker at 28° C. for about one month to obtain rice suspension cells.
(§2) The basic components of the above solid medium and liquid medium are consistent, both being an MS medium. The solid medium was prepared by adding agar to the liquid medium (adding […] of the liquid medium, and then heating, melting, cooling and solidifying to obtain the solid medium). The basic formula was as follows: […]
(§3) In order to study the effect of the ferrous modified selenium sol on the expression level of the cadmium transporter in rice suspension cells, the following treatments were performed on the rice suspension cells: […]

[2] = test system: OsNramp5; experiment: Expression level of OsNramp5 in rice suspension cells, real-time fluorescence quantitative PCR; assay type: cell-based, Oryza sativa L. Japonica; conditions: 24 h with treatment, then 10 μM cadmium and 5 μM arsenic for 24 h, CK 4.84 ± 0.15
Experimental: as §1, §2, §3

[3] = test system: OsLCT1; experiment: Expression level of OsLCT1 in rice suspension cells, real-time fluorescence quantitative PCR; assay type: cell-based, Oryza sativa L. Japonica; conditions: 24 h with treatment, then 10 μM cadmium and 5 μM arsenic for 24 h, CK 4.62 ± 0.10
Experimental: as §1, §2, §3

[4] = test system: OsLsi1; experiment: Expression level of OsLsi1 in rice suspension cells, real-time fluorescence quantitative PCR; assay type: cell-based, Oryza sativa L. Japonica; conditions: 24 h with treatment, then 10 μM cadmium and 5 μM arsenic for 24 h, CK 4.74 ± 0.11
Experimental: as §1, §2, §3

[5] = test system: OsLsi2; experiment: Expression level of OsLsi2 in rice suspension cells, real-time fluorescence quantitative PCR; assay type: cell-based, Oryza sativa L. Japonica; conditions: 24 h with treatment, then 10 μM cadmium and 5 μM arsenic for 24 h, CK 4.91 ± 0.21
Experimental: as §1, §2, §3

[6] = test system: rice suspension cells; experiment: Content of cadmium in rice suspension cells; assay type: cell-based, Oryza sativa L. Japonica; conditions: for Cd Content: 10 μM cadmium and 5 μM arsenic for 24 h, CK 12.8 ± 0.9; for Cd reduction ratio (inhibition rate of cadmium): compared with the blank control
Experimental: as §1, §2
(§4) Ferrous sulfate, sodium selenite and the ferrous modified selenium sol prepared in Examples 1, 2 and 3 were added to a rice suspension cell system, respectively, so that in the final system the ferrous sulfate solution containing the iron element at a mass-volume ratio of 0.05% (T1), the sodium selenite solution containing the selenium element at a mass-volume ratio of 0.025% (T2), and the ferrous modified selenium sol prepared in Example 1 (T3) were diluted 50 times, the ferrous modified selenium sol prepared in Example 2 was diluted 150 times (T4), and the ferrous modified selenium sol prepared in Example 3 was diluted 100 times (T5). The rice suspension cells without any treatment were used as a control (CK). After 24 h of culture, cadmium and arsenic were added to the culture system, so that the final concentrations of cadmium and arsenic were 10 μM and 5 μM, respectively. With the temperature kept constant at 28° C. in a shaker, the rice cells of each treatment were continuously cultured for 24 h and then collected. RNA was extracted from the rice cells and reversely transcribed, and the expression levels of the genes OsNramp5, OsHMA3, OsLCT1, OsLsi1 and OsLsi2 were detected.
(§5) The rice cells obtained by the above respective treatments were collected and washed centrifugally with ultrapure water, and then the contents of cadmium and arsenic in the cells were measured.

[7] = test system: rice suspension cells; experiment: Content of arsenic in rice suspension cells; assay type: cell-based, Oryza sativa L. Japonica; conditions: for As content: 10 μM cadmium and 5 μM arsenic for 24 h, CK 7.12 ± 0.82; for As reduction ratio (inhibition rate of arsenic): compared with the blank control
Experimental: as §1, §2, §4, §5

[8] = test system: rice; assay type: in vivo, rice variety Huang-Li-Zhan
Description: (§6) The surface soil (0-30 cm) of a rice field polluted by heavy metals located in Boluo Town, Huizhou City, Guangdong Province was collected and analyzed from April to July of 2016. […] The tested rice variety was Huang-Li-Zhan.
(§7) There were the following six treatments in the experiment: (1) Blank control (CK): An equal amount of clear water was sprayed. (2) Treatment 1 (T1): The silica sol foliar barrier (prepared in Example 3) was sprayed once on the leaves at the tillering stage of rice when the foliar barrier was diluted 50 times and sprayed at 100 L/mu. (3) Treatment 2 (T2): The selenium sol foliar barrier (prepared in Example 3) was sprayed twice on the leaves, the first at the tillering stage of rice when the foliar barrier was diluted 100 times and sprayed at 50 L/mu, the second at the heading stage of rice when the foliar barrier was diluted 100 times and sprayed at 150 L/mu. (4) Treatment 3 (T3): The selenium sol foliar barrier (prepared in Example 3) was sprayed three times on the leaves, the first at the tillering stage of rice when the foliar barrier was diluted 100 times and sprayed at 80 L/mu, the second at the heading stage of rice when the foliar barrier was diluted 100 times and sprayed at 120 L/mu, the third at the filling stage of rice when the foliar barrier was diluted 250 times and sprayed at 150 L/mu. (5) Treatment 4 (T4): The ferrous sulfate solution containing the iron element at a mass-volume ratio of 0.1% was sprayed on the leaves at the tillering stage of rice at 100 L/mu. (6) Treatment 5 (T5): The sodium selenite solution containing the selenium element at a mass-volume ratio of 0.05% was sprayed on the leaves at the tillering stage of rice at 100 L/mu.
(§8) It was selected that the above foliar preparations were sprayed at 4-6 pm on a sunny day; when sprayed, the atomized droplets were controlled to be smaller than 1000 microns, and sprayed uniformly on both sides of the rice leaves. Each treatment was repeated four times, randomly arranged. There were totally 36 test plots, each plot having an area of 5×6=30 m^2 to ensure independent drainage and irrigation.

[9] = test system: rice; experiment: Field test of foliar barriers: content of cadmium in rice; assay type: in vivo, rice variety Huang-Li-Zhan; conditions: for content of cadmium in rice decreased by, compared with the control (CK) / content of cadmium in rice: sprayed once at tillering stage at 100 L/mu (T1, T4, T5); for content of cadmium in rice: control 0.308 mg/kg
Description: as §6, §7, §8

[10] = test system: rice; experiment: Field test of foliar barriers: content of inorganic arsenic in rice; assay type: in vivo, rice variety Huang-Li-Zhan; conditions: sprayed once at tillering stage at 100 L/mu (T1, T4, T5); for content of inorganic arsenic in rice: control 0.280 mg/kg
Description: as §6, §7, §8

| Compound | OsHMA3 expression [1] | OsNramp5 expression [2] | OsLCT1 expression [3] | OsLsi1 expression [4] | OsLsi2 expression [5] | Cd Content [6] [µg/g] | Cd reduction ratio (inhibition rate of cadmium) [6] [%] | As content [7] [µg/g] | As reduction ratio (inhibition rate of arsenic) [7] [%] | content of cadmium in rice decreased by, compared with the control (CK) [9] [%] | content of cadmium in rice [9] [mg/kg] | content of inorganic arsenic in rice decreased by, compared with the control (CK) [10] [%] | content of inorganic arsenic in rice [10] [mg/kg] | also measured |
| --- | --- | --- | --- | --- | --- | --- | --- | --- | --- | --- | --- | --- | --- | --- |
| O=S(=O)([O-])[O-].[Fe+2] [ferrous sulfate] | 2.53 ± 0.12 | 3.15 ± 0.16 | 3.82 ± 0.11 | 4.15 ± 0.16 | 4.78 ± 0.27 | 8.3 ± 0.6 | 35.2 | 6.89 ± 0.71 | 3.2 | 18.8 | 0.250 | 18.7 | 0.255 | Dry production per mu ([8]; in vivo): 410 kg; Plot average yield ([8]; in vivo): 30.04abc kg; Plot yield I ([8]; in vivo): 29.4 kg; Plot yield II ([8]; in vivo): 30.75 kg; Plot yield III ([8]; in vivo): 30.3 kg; Wet production per mu ([8]; in vivo): 668 kg; Yield increase ratio ([8]; in vivo): 6.4%; Plot yield IV ([8]; in vivo, iv): 29.7 kg; cadmium and inorganic arsenic content of the treated rice against the food hygiene standard ([9]; sol in regimens T1, T2 and T3, ferrous sulfate T4, sodium selenite T5): still exceeded the food hygiene standard |
| O=[Se](O)O [sodium selenite] | 2.15 ± 0.14 | 3.85 ± 0.21 | 4.42 ± 0.14 | 3.11 ± 0.17 | 3.07 ± 0.11 | 9.1 ± 1.2 | 28.9 | 4.96 ± 0.53 | 30.3 | 10.1 | 0.276 | 16.8 | 0.232 | yield of rice decreased by ([8]; field, T5: sprayed once at tillering stage at 100 L/mu, 0.05% Se, compared with CK): 3.8%; Plot average yield ([8]; field, sprayed once at tillering stage at 100 L/mu (T1, T4, T5), CK 28.05): 26.95c kg; Dry production per mu ([8]; field, sprayed once at tillering stage at 100 L/mu (T1, T4, T5), CK 386): 371 kg; Wet production per mu ([8]; field, sprayed once at tillering stage at 100 L/mu (T1, T4, T5), CK 623): 599 kg; Yield increase ratio ([8]; field, sprayed once at tillering stage at 100 L/mu (T1, T4, T5), compared with CK): −3.8%; Plot yield II ([8]; field, sprayed once at tillering stage at 100 L/mu (T1, T4, T5), plot II, CK 30.15): 27.15 kg; Plot yield III ([8]; field, sprayed once at tillering stage at 100 L/mu (T1, T4, T5), plot III, CK 28.95): 29.12 kg; Plot yield IV ([8]; field, sprayed once at tillering stage at 100 L/mu (T1, T4, T5), plot IV, CK 24.3): 26.13 kg; Plot yield I ([8]; field, sprayed once on leaves at tillering stage at 100 L/mu (T1: sol diluted 50 times; T4: ferrous sulfate 0.1% Fe; T5: sodium selenite 0.05% Se), plot I, 30 m^2, CK 28.65): 25.41 kg |
